Source: ChEMBL document CHEMBL3639247, “Pyrazole compounds as CRTH2 antagonists” (2014)

Target: T1, Prostaglandin D2 receptor 2 (Homo sapiens, UniProt Q9Y5Y4)
T1 sequence (Q9Y5Y4 whole entry): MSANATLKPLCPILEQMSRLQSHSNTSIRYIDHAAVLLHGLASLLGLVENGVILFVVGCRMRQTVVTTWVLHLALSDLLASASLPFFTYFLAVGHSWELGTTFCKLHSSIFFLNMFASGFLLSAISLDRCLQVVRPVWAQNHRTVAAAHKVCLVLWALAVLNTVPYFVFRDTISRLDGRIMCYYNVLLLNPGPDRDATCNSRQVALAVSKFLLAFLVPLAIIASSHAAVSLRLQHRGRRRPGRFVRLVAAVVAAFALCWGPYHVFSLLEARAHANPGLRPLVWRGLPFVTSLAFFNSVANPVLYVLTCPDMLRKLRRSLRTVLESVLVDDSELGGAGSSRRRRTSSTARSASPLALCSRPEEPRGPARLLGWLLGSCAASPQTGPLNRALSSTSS
Assay: Radioligand Binding Assay: The CRTH2 receptor binding assay is performed in a scintillation proximity assay (SPA) format with the radioligand [3H]-PGD2 (Perkin Elmer, NET616000MC). CHO-K1-hCRTH2 cell membranes are again homogenized by passing through a single use needle (Terumo, 23Gx1'') and diluted in SPA incubation buffer in suitable concentrations (0.5-10 ug protein/well). The SPA assay is set up in 96 well microtiter plates (Perkin Elmer, CatNo. 6005040) in SPA incubation buffer with a final volume of 200 ul per well and final concentration of 50 mM Tris-HCl, 10 mM MgCl2, 150 mM NaCl, 1 mM EDTA pH 7.4, 0.1% bovine serum albumin). The SPA assay mixture contains 60 ul of the membrane suspension, 80 ul of Wheat Germ Agglutinin coated PVT beads (GE Healthcare, RPNQ-0001, 0.3 mg/well), 40 ul of [3H]-PGD2 diluted in SPA buffer to a final concentration of 1 nM (50 000 dpm) and 20 ul of the test compound (dissolved in dimethylsulfoxid).

CCc1nn(Cc2ccc(NC(=O)C3CCC(C(F)(F)F)CC3)cc2)c(CC)c1CC(=O)O (stereo unspecified)
Ki: 23.9 nM
